Test results as given in ChEMBL document CHEMBL4680171, “Oxadiazolylthiazoles as novel and selective antifungal agents” (Eur J Med Chem, 2020).
Values after ≈ are worked out from the molar mass of the structure shown. Active and inactive are the calls of the source. The rule behind the calls is not given here.

How the values were obtained:
[1] = system: Candida albicans; assay: Antifungal activity against Candida albicans SS5314 assessed as reduction in fungal growth by CLSI based broth microdilution method; type: functional
[2] = system: Escherichia coli; assay: Antibacterial activity against Escherichia coli JW55031 harboring tolC mutation assessed as reduction in bacterial growth by CLSI based broth microdilution method; type: functional
[3] = system: Clostridioides difficile; assay: Antibacterial activity against Clostridium difficile BAA1870 assessed as reduction in bacterial growth by CLSI based broth microdilution method; type: functional
[4] = system: Escherichia coli; assay: Antibacterial activity against Escherichia coli BW25113 assessed as reduction in bacterial growth by CLSI based broth microdilution method; type: functional
[5] = system: Staphylococcus aureus; assay: Antibacterial activity against methicillin resistant Staphylococcus aureus subsp. aureus USA300 assessed as reduction in bacterial growth by CLSI based broth microdilution method; type: functional
[6] = system: Cryptococcus neoformans; assay: Antifungal activity against Cryptococcus neoformans NR41298 assessed as reduction in fungal growth incubated for 48 hrs by CLSI based broth microdilution method; type: functional
[7] = system: Lactobacillus gasseri; assay: Antibacterial activity against Lactobacillus gasseri HM-400 assessed as reduction in bacterial growth by CLSI based assay
[8] = system: Candida albicans; assay: Antifungal activity against Candida albicans ATCC 10231 assessed as reduction in fungal growth incubated for 24 hrs by CLSI based broth microdilution method; type: functional
[9] = system: Candida parapsilosis; assay: Antifungal activity against Candida parapsilosis ATCC 22019 assessed as reduction in fungal growth incubated for 24 hrs by CLSI based broth microdilution method; type: functional; conditions: Lodderomyces parapsilosis
[10] = Cytotoxicity against African green monkey Vero cells assessed as reduction in cell viability incubated for 2 hrs by MTS assay; type: cell-based; conditions: chlorocebus sabaeus
[11] = system: Pichia kudriavzevii; assay: Antifungal activity against Candida krusei ATCC 34135 assessed as reduction in fungal growth incubated for 24 hrs by CLSI based broth microdilution method; type: functional
[12] = system: Candida albicans; assay: Fungicidal activity against Candida albicans SS5314 assessed as eradication of fungal count at 5XMIC measured after 2 hrs by time kill assay relative to control; type: functional
[13] = system: [Candida] auris; assay: Antifungal activity against fluconazole-resistant Candida auris 381 assessed as reduction in fungal growth incubated for 24 hrs by CLSI based broth microdilution method; type: functional; conditions: Candidozyma auris
[14] = system: Lactobacillus crispatus; assay: Antibacterial activity against Lactobacillus crispatus HM-370 assessed as reduction in bacterial growth by CLSI based assay
[15] = system: Nakaseomyces glabratus; assay: Antifungal activity against Candida glabrata ATCC MYA-2950 assessed as reduction in fungal growth incubated for 24 hrs by CLSI based broth microdilution method; type: functional
[16] = system: Vero; assay: Cytotoxicity against African green monkey Vero cells assessed as reduction in cell viability at 16 ug/ml incubated for 2 hrs by MTS assay; type: cell-based; conditions: chlorocebus sabaeus, dose 16 µg/ml
[17] = system: Cryptococcus gattii species complex; assay: Antifungal activity against Cryptococcus gattii NR43210 assessed as reduction in fungal growth incubated for 48 hrs by CLSI based broth microdilution method; type: functional, Cryptococcus bacillisporus
[18] = system: Candida parapsilosis; assay: Antifungal activity against Candida parapsilosis CAB 502638 assessed as reduction in fungal growth incubated for 24 hrs by CLSI based broth microdilution method; type: functional; conditions: Lodderomyces parapsilosis
[19] = system: [Candida] auris; assay: Antifungal activity against fluconazole-resistant Candida auris 384 assessed as reduction in fungal growth incubated for 24 hrs by CLSI based broth microdilution method; type: functional; conditions: Candidozyma auris
[20] = system: Nakaseomyces glabratus; assay: Antifungal activity against Candida glabrata ATCC 66032 assessed as reduction in fungal growth incubated for 24 hrs by CLSI based broth microdilution method; type: functional
[21] = system: Cryptococcus neoformans; assay: Antifungal activity against Cryptococcus neoformans NR48770 assessed as reduction in fungal growth incubated for 48 hrs by CLSI based broth microdilution method; type: functional
[22] = system: Pichia kudriavzevii; assay: Antifungal activity against Candida krusei CAB 396420 assessed as reduction in fungal growth incubated for 24 hrs by CLSI based broth microdilution method; type: functional
[23] = system: Cryptococcus gattii species complex; assay: Antifungal activity against Cryptococcus gattii NR43209 assessed as reduction in fungal growth incubated for 48 hrs by CLSI based broth microdilution method; type: functional, Cryptococcus bacillisporus
[24] = system: Lacticaseibacillus casei; assay: Antibacterial activity against Lactobacillus casei HM-334 assessed as reduction in bacterial growth by CLSI based assay; type: organism-based
[25] = system: Candida albicans; assay: Antifungal activity against Candida albicans SS5314 assessed as reduction in fungal growth incubated for 24 hrs by CLSI based broth microdilution method; type: functional
[26] = system: Candida albicans; assay: Antifungal activity against fluconazole-resistant Candida albicans NR29448 assessed as reduction in fungal growth incubated for 24 hrs by CLSI based broth microdilution method; type: functional
[27] = system: Cryptococcus neoformans; assay: Antifungal activity against Cryptococcus neoformans NR41300 assessed as reduction in fungal growth incubated for 48 hrs by CLSI based broth microdilution method; type: functional
[28] = system: [Candida] auris; assay: Antifungal activity against fluconazole-resistant Candida auris 383 assessed as reduction in fungal growth incubated for 24 hrs by CLSI based broth microdilution method; type: functional; conditions: Candidozyma auris
[29] = system: Candida albicans; assay: Antifungal activity against Candida albicans SS5314 assessed as reduction in fungal growth measured after 10 passages by CLSI based broth microdilution method; type: functional, organism-based
[30] = system: Candida albicans; assay: Fungistatic activity against Candida albicans SS5314 at 5 to 10x MIC measured for 36 hrs by time kill assay; type: functional, organism-based
[31] = system: Aspergillus fumigatus; assay: Antifungal activity against Aspergillus fumigatus NR 35304 assessed as reduction in fungal growth incubated for 24 hrs by CLSI based broth microdilution method; type: functional
[32] = system: Aspergillus fumigatus; assay: Antifungal activity against Aspergillus fumigatus NR 35303 assessed as reduction in fungal growth incubated for 24 hrs by CLSI based broth microdilution method; type: functional
[33] = system: Candida albicans; assay: Antibiofilm activity against 24 hrs preformed biofilm of Candida albicans NR29448 assessed as disruption of mature biofilm at 64 ug/ml incubated for 24 hrs by crystal violet staining based spectrophotometry relative to control; type: functional; conditions: dose 64.0 µg/ml
[34] = system: Candida albicans; assay: Antibiofilm activity against Candida albicans NR29448 assessed as reduction in biofilm formation at 0.5XMIC incubated for 24 hrs by crystal violet staining based assay relative to control; type: functional

Compound: Cc1nc(-c2ccc(C(C)(C)C)cc2)sc1-c1nnc(NC[C@H](O)CO)o1
- MIC [1]: > 64 µg/mL
- MIC [2]: 32 µg/mL (≈ 82.4 µM)
- MIC [3]: 16 µg/mL (≈ 41.2 µM)
- MIC [4]: > 64 µg/mL
- MIC [5]: > 64 µg/mL

Compound: Cc1nc(-c2ccc(C(C)(C)C)cc2)sc1-c1nnc(NC[C@@H](O)CO)o1
- MIC [1]: > 64 µg/mL
- MIC [2]: > 64 µg/mL
- MIC [3]: 32 µg/mL (≈ 82.4 µM)
- MIC [4]: > 64 µg/mL
- MIC [5]: > 64 µg/mL

Compound: Cc1nc(-c2ccc(C(C)(C)C)cc2)sc1-c1nnc(NCCN(C)C)o1
- MIC [1]: 32 µg/mL (≈ 83 µM)
- MIC [2]: 32 µg/mL (≈ 83 µM)
- MIC [3]: 16 µg/mL (≈ 41.5 µM)
- MIC [4]: > 64 µg/mL
- MIC [5]: 64 µg/mL (≈ 166 µM)

Compound: C[C@@H]1[C@H](O)[C@@H](C)/C=C/C=C/C=C/C=C/C=C/C=C/C=C/[C@H](O[C@@H]2O[C@H](C)[C@@H](O)[C@H](N)[C@@H]2O)C[C@@H]2O[C@](O)(C[C@@H](O)C[C@@H](O)[C@H](O)CC[C@@H](O)C[C@@H](O)CC(=O)O[C@H]1C)C[C@H](O)[C@H]2C(=O)O [AMPHOTERICIN B]
- MIC [1]: 1 µg/mL (≈ 1.08 µM)
- MIC [6]: 1 µg/mL (≈ 1.08 µM)
- MIC [7]: > 128 µg/mL
- MIC [8]: 1 µg/mL (≈ 1.08 µM)
- MIC [9]: 0.5 µg/mL (≈ 0.541 µM)
- CC50 at 2 h [10]: 8 µg/mL (≈ 8.66 µM)
- MIC [11]: 2 µg/mL (≈ 2.16 µM)
- Activity [12]: 100%
- MIC [13]: 0.5 µg/mL (≈ 0.541 µM)
- MIC [14]: > 128 µg/mL
- MIC [15]: 1 µg/mL (≈ 1.08 µM)
- Activity [16]: Toxic
- MIC [17]: 1 µg/mL (≈ 1.08 µM)
- MIC [18]: 0.5 µg/mL (≈ 0.541 µM)
- MIC [19]: 2 µg/mL (≈ 2.16 µM)
- MIC [20]: 2 µg/mL (≈ 2.16 µM)
- MIC [21]: 1 µg/mL (≈ 1.08 µM)
- MIC [22]: 2 µg/mL (≈ 2.16 µM)
- MIC [23]: 1 µg/mL (≈ 1.08 µM)
- MIC [24]: > 128 µg/mL
- MIC [25]: 1 µg/mL (≈ 1.08 µM)
- MIC [26]: 1 µg/mL (≈ 1.08 µM)
- MIC [27]: 1 µg/mL (≈ 1.08 µM)
- MIC [28]: 1 µg/mL (≈ 1.08 µM)

Compound: GENTAMICIN
- MIC [2]: < 0.5 µg/mL
- MIC [4]: < 0.5 µg/mL

Compound: Cc1nc(-c2ccc(C(C)(C)C)cc2)sc1-c1nnc(NCC2CCCCN2)o1 (centres undefined)
- MIC [1]: > 64 µg/mL
- MIC [2]: 16 µg/mL (≈ 38.9 µM)
- MIC [3]: 16 µg/mL (≈ 38.9 µM)
- MIC [4]: > 64 µg/mL
- MIC [5]: 32 µg/mL (≈ 77.8 µM)

Compound: CC(=O)NC[C@H]1CN(c2ccc(N3CCOCC3)c(F)c2)C(=O)O1 [LINEZOLID]
- MIC [2]: 8 µg/mL (≈ 23.7 µM)
- MIC [3]: 1 µg/mL (≈ 2.96 µM)
- MIC [4]: > 64 µg/mL
- MIC [5]: 1 µg/mL (≈ 2.96 µM)

Compound: Cc1nc(-c2ccc(C(C)(C)C)cc2)sc1-c1nnc(N2CC[C@H](N(C)C)C2)o1
- MIC [1]: > 64 µg/mL
- MIC [2]: > 64 µg/mL
- MIC [3]: 32 µg/mL (≈ 77.8 µM)
- MIC [4]: > 64 µg/mL
- MIC [5]: > 64 µg/mL

Compound: OC(Cn1cncn1)(Cn1cncn1)c1ccc(F)cc1F [FLUCONAZOLE]
- Activity [29]: Active
- MIC [1]: > 64 µg/mL
- Activity [30]: Active
- MIC [6]: 2 µg/mL (≈ 6.53 µM)
- MIC [7]: > 128 µg/mL
- MIC [8]: 1 µg/mL (≈ 3.27 µM)
- MIC [9]: 1 µg/mL (≈ 3.27 µM)
- MIC [31]: > 64 µg/mL
- MIC [32]: > 64 µg/mL
- MIC [11]: 16 µg/mL (≈ 52.2 µM)
- Activity [33]: inactive
- MIC [13]: 2 µg/mL (≈ 6.53 µM)
- MIC [14]: > 128 µg/mL
- MIC [15]: 16 µg/mL (≈ 52.2 µM)
- MIC [17]: 4 µg/mL (≈ 13.1 µM)
- MIC [18]: 0.5 µg/mL (≈ 1.63 µM)
- MIC [19]: > 128 µg/mL
- MIC [20]: 8 µg/mL (≈ 26.1 µM)
- MIC [21]: 2 µg/mL (≈ 6.53 µM)
- MIC [22]: 16 µg/mL (≈ 52.2 µM)
- MIC [23]: 4 µg/mL (≈ 13.1 µM)
- MIC [24]: > 128 µg/mL
- MIC [25]: 1 µg/mL (≈ 3.27 µM)
- MIC [26]: > 128 µg/mL
- inhibition (INH) [34]: 50%
- MIC [27]: 1 µg/mL (≈ 3.27 µM)
- MIC [28]: 128 µg/mL (≈ 418 µM)

Compound: Cc1nc(-c2ccc(C(C)(C)C)cc2)sc1-c1nnc(NCCCO)o1
- MIC [1]: > 64 µg/mL
- MIC [2]: > 64 µg/mL
- MIC [3]: 32 µg/mL (≈ 85.9 µM)
- MIC [4]: > 64 µg/mL
- MIC [5]: > 64 µg/mL

Compound: Cc1nc(-c2ccc(C(C)(C)C)cc2)sc1-c1nnc(NCC(=N)N)o1
- MIC [1]: > 64 µg/mL
- MIC [2]: > 64 µg/mL
- MIC [3]: 64 µg/mL (≈ 173 µM)
- MIC [4]: > 64 µg/mL
- MIC [5]: > 64 µg/mL

Compound: Cc1nc(-c2ccc(C(C)(C)C)cc2)sc1-c1nnc(NCCN)o1
- MIC [1]: 32 µg/mL (≈ 89.5 µM)
- MIC [2]: > 64 µg/mL
- MIC [3]: > 64 µg/mL
- MIC [4]: > 64 µg/mL
- MIC [5]: 8 µg/mL (≈ 22.4 µM)

Compound: CCC(C)n1ncn(-c2ccc(N3CCN(c4ccc(OCC5COC(Cn6cncn6)(c6ccc(Cl)cc6Cl)O5)cc4)CC3)cc2)c1=O (centres undefined) [ITRACONAZOLE]
- MIC [31]: 1 µg/mL (≈ 1.42 µM)
- MIC [32]: 1 µg/mL (≈ 1.42 µM)
